Our source for the GI50 and TGI values is PubChem BioAssay (NCI).

Test systems include UACC-62 melanoma; HCT-15 colon; A549 NSCLC; SF-268 CNS; UACC-257 melanoma; SK-MEL-28 melanoma; HS 578T breast; NCI-H23 lung; OVCAR-4 ovarian; MDA-N.
Holding throughout (experiment): DTP human tumour cell line panel, 48 h

Structures are written as SMILES.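 Protocol summary: plate cells (96-well), add compound at 5 concentrations, incubate 48 h, interpolate endpoints linearly. GI50 is the concentration that inhibits growth by half. TGI: total growth inhibition.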

The GI50 is the concentration that inhibits growth by half. What is called TGI is the concentration at which net growth stops. Read a low TGI as more potent growth arrest. Turning to `COc1ccc(C2=NC(c3ccc(Cl)cc3)C(c3ccc(Cl)cc3)N2C(=O)N2CCNC(=O)C2)c(OC(C)C)c1` (configuration not stated), the GI50 with UACC-62 melanoma was 1.9 µM; in the test on HCT-15 colon, 1.91 µM; in the test with A549 NSCLC it was 2.22 µM; in the test with SF-268 CNS, 2.11 µM; with UACC-257 melanoma it was 2.64 µM; with SK-MEL-28 melanoma it was 3.24 µM. The GI50 in the test with HS 578T breast was 2.65 µM; in the test with NCI-H23 lung, 1.83 µM; in the test on OVCAR-4 ovarian it was 2.16 µM. Moreover, the TGI in the test on UACC-62 melanoma was determined as 3.4 µM; in the test on HCT-15 colon, 3.86 µM; in the test with A549 NSCLC, 5.61 µM; with SF-268 CNS, 3.97 µM; in the test on UACC-257 melanoma it was 4.84 µM; in the test on SK-MEL-28 melanoma, 7.62 µM. Further, the TGI with HS 578T breast was found to be 6.45 µM; in the test on NCI-H23 lung, 3.45 µM; in the test on OVCAR-4 ovarian, 4.47 µM.

For the compound `Cc1cc2ccc(N)nc2[nH]c1=O`, the TGI with UACC-62 melanoma, in the test on HCT-15 colon, in the test on A549 NSCLC, with SF-268 CNS, in the test on UACC-257 melanoma and in the test on HS 578T breast was over 100 µM throughout. Also, the TGI in the test on MDA-N and in the test with NCI-H23 lung was over 100 µM throughout.

For `CC(NC(=O)C(Cc1ccc(OC(=O)c2ccccc2)cc1)NC(=O)OC(C)(C)C)C(=O)NCC(=O)NC(Cc1ccccc1)C(=O)NN` (configuration not stated), the TGI in the test on UACC-62 melanoma, in the test on HCT-15 colon, with A549 NSCLC, with SF-268 CNS, with SK-MEL-28 melanoma and in the test with HS 578T breast was over 100 µM in each case. Also, the TGI with MDA-N, with NCI-H23 lung and in the test on OVCAR-4 ovarian was over 100 µM in each case.

As to `COc1ccc(CNc2nc3ccccc3nc2C(=O)O)cc1`, the concentration for total growth inhibition (TGI) with UACC-62 melanoma is over 100 µM; in the test on HCT-15 colon, 60.9 µM; with A549 NSCLC it was over 100 µM; with SF-268 CNS it was over 100 µM; in the test on UACC-257 melanoma, over 100 µM; with SK-MEL-28 melanoma, over 100 µM. In addition, the TGI in the test on HS 578T breast, with MDA-N and in the test on NCI-H23 lung was over 100 µM each time.

With `CCOC(=O)/C=C/[C@@H](CC)O[Si](C(C)C)(C(C)C)C(C)C`, the TGI in the test on UACC-62 melanoma, in the test on HCT-15 colon, in the test with A549 NSCLC, in the test on SF-268 CNS, in the test with UACC-257 melanoma and in the test with HS 578T breast was over 100 µM throughout. Besides, the TGI in the test on MDA-N, in the test on NCI-H23 lung and in the test with OVCAR-4 ovarian was over 100 µM in each case.

For `O=[N+]([O-])C(C=C(n1nnc2ccccc21)n1nnc2ccccc21)=C(n1nnc2ccccc21)n1nnc2ccccc21`, the total growth inhibition concentration (TGI) with UACC-62 melanoma, in the test with HCT-15 colon, in the test on A549 NSCLC, in the test on SF-268 CNS, with HS 578T breast and with MDA-N was over 100 µM throughout. In the test on NCI-H23 lung, the total growth inhibition concentration (TGI) is over 100 µM.

Regarding `CC1C2(C)OCC(C#N)(C(=N)O2)C1(C#N)C#N` (configuration not stated), the TGI with UACC-62 melanoma was 76.1 µM; with HCT-15 colon it was 26.3 µM; with A549 NSCLC, over 100 µM; with SF-268 CNS, 74.3 µM; with UACC-257 melanoma it was 71.2 µM; in the test with SK-MEL-28 melanoma, 97.6 µM. Moreover, the total growth inhibition concentration (TGI) with HS 578T breast came to 74.4 µM; with MDA-N, 41.7 µM; in the test with NCI-H23 lung, 86.9 µM.

`CC(C)=NOC(=O)Nc1cccc2c1OCO2`: the concentration for total growth inhibition (TGI) in the test with UACC-62 melanoma, with HCT-15 colon, in the test with A549 NSCLC, with SF-268 CNS, in the test on UACC-257 melanoma and with SK-MEL-28 melanoma was over 100 µM throughout. In addition, the concentration for total growth inhibition (TGI) in the test on HS 578T breast, in the test on NCI-H23 lung and with OVCAR-4 ovarian was over 100 µM each time.

For the compound `CCCCCCCCCCCCOP(=O)(O)OP(=O)(O)OCC1OC(n2cc(C)c(=O)[nH]c2=O)CC1O` (configuration not stated), the concentration for total growth inhibition (TGI) in the test on HCT-15 colon, in the test on A549 NSCLC, in the test on SF-268 CNS, in the test with UACC-257 melanoma, in the test with SK-MEL-28 melanoma and in the test with HS 578T breast was over 100 µM each time. Moreover, the TGI in the test with MDA-N, in the test with NCI-H23 lung and with OVCAR-4 ovarian was over 100 µM in each case.

As to `O=c1[nH]c2ccc([N+](=O)[O-])cc2nc1/C=C(\O)c1ccccc1`, the TGI with UACC-62 melanoma was over 100 µM; with HCT-15 colon it was over 100 µM; in the test with A549 NSCLC, over 100 µM; in the test with SF-268 CNS it was 58.3 µM; in the test on UACC-257 melanoma, over 100 µM; in the test with HS 578T breast it was 8.93 µM. In addition, the values for the TGI in the test on MDA-N, with NCI-H23 lung and with OVCAR-4 ovarian were over 100 µM, 73.3 µM and 8.87 µM, respectively.

For `Cc1ccc(S(=O)(=O)Nn2c(O)c(C#N)c(-c3ccc([N+](=O)[O-])cc3)c(C#N)c2=O)cc1`, the TGI with UACC-62 melanoma, in the test on HCT-15 colon, in the test with A549 NSCLC, with SF-268 CNS, with UACC-257 melanoma and with SK-MEL-28 melanoma was over 100 µM each time. In addition, the concentration for total growth inhibition (TGI) in the test with MDA-N and in the test on OVCAR-4 ovarian was over 100 µM throughout.

As to `CCn1c2ccccc2c2cc(Nc3cc(C)[nH]c(=O)n3)ccc21`, the TGI in the test on UACC-62 melanoma, in the test with HCT-15 colon, in the test on A549 NSCLC, in the test on SF-268 CNS, in the test on UACC-257 melanoma and in the test with SK-MEL-28 melanoma was over 100 µM throughout. Further, the TGI in the test with MDA-N, in the test on NCI-H23 lung and in the test on OVCAR-4 ovarian was over 100 µM each time.

On to `CC/C(=C\c1ccc(OC)cc1)c1ccc(OC)cc1`, for which the TGI with UACC-62 melanoma, in the test with HCT-15 colon, with A549 NSCLC, with SF-268 CNS, in the test with UACC-257 melanoma and in the test on HS 578T breast was over 100 µM in each case. Besides, the TGI in the test on MDA-N, in the test on NCI-H23 lung and in the test with OVCAR-4 ovarian was over 100 µM throughout.
